{"source": "patent US20220340685A1", "about": "“COMBINATION THERAPY WITH ENTPD2 AND CD73 ANTIBODIES” (Novartis AG, priority 2019, published 2022)", "system": "human ENTPD2 engineered B16LM3 clone B5", "assay": "Human ENTPD2 engineered B16LM3 clone B5 model, combination with A2AR antagonist NIR178", "type": "in vivo", "details": "NIR178 p.o. 4 days on and 3 days off, 50 or 200 mg/kg; antibody or isotype 10 mg/kg i.v. day 1", "description": "Human ENTPD2-engineered B16LM3 clone B5 was established in female C57BL/6 mice by subcutaneous injection of 0.5×10^6 cells into the right flank of each mouse. Once tumors reached approximately 50 mm^3, mice were randomized according to tumor volume into treatment groups (n=8 per group). Mice received an intravenous (i.v.) treatment of either anti-ENTPD2 mAb1 at a final dose of 10/mg/kg or a non-specific human IgG1 isotype control 10 mg/kg on day 1 of study. NIR178 was administered per os (p.o.) for 4 days on and 3 days off, starting at the beginning of study at either 50 mg/kg or 200 mg/kg. All doses were adjusted to individual mouse body weights. The study was carried out for thirteen days post treatment initiation and tumor volumes were assessed every other day to assess efficacy."}
{"smiles": "Nc1nc(-n2cccn2)nc(-n2cccn2)c1Br", "note": "[NIR178, 5-bromo-2,6-di-(1H-pyrazol-1-yl)pyrimidine-4-amine]", "values": [{"measurement": "anti-tumor efficacy", "result": "No significant anti-tumor efficacy"}]}
